Measured values as given in US8759334B2, “Compounds useful for the treatment of metabolic and inflammatory diseases” (Galapagos NV, priority 2011, dated 2014).

The molecules below were run against T1, GPR43 (Homo sapiens, UniProt O15552) (assay: Calcium mobilization assay with probenecid). Conditions: GPR43 stably expressing cells; triggered with sodium acetate at EC80; 2.5 mM probenecid; read-out: GPR43 assay with probenicid IC50.
T1 construct: expressed in transfected cells
T1 sequence (O15552 1-330): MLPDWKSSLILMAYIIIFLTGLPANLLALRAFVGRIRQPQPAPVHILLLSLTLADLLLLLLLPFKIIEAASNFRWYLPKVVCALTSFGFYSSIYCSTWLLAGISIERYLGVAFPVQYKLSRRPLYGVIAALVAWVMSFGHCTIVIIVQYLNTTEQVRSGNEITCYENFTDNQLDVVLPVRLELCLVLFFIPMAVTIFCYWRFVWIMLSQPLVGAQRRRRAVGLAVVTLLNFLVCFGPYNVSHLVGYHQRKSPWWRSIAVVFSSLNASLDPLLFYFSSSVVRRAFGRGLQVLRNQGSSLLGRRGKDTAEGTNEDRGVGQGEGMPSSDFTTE
Type: cell-based
Procedure: The following assay can be used for determination of GPR43 activation. The assay measures intracellular calcium release induced by activation of GPR43. On day 1, GPR43 stably expressing cells were detached with mild trypsinization (Trypsin, 0.25% with EDTA 4Na, 5× diluted in PBS) centrifuged at 1000 rpm for 5 min and resuspended at 6.000 cells/25 […] medium (DMEM supplemented with 10% FBS, 10 μg/mL puromycin and 1% Pen/Strep). The cells were distributed in poly-D-lysine coated 384 well plates (black with clear bottom, 25 μL/well) and incubated overnight at 37° C. 10% CO2.
On day 2, 25 μL of a fluorescent Ca^2+ indicator (Calcium 4 assay; Molecular Devices) supplemented with 2.5 mM probenecid was added on top of the cells and incubated for 2 h at 37° C. Subsequently, compounds at increasing concentration (10 μL/well) were added to the plate and incubated for 15 min at 37° C.
To measure agonist activity of the compounds, compound was added to the well and the Ca^2+-flux was measured simultaneously to the […] of compound.

| SMILES | IC50 |
| --- | --- |
| CC1(C(=O)N(CCCC(=O)O)Cc2ccc(C(F)(F)F)cc2)CCN1C(=O)c1csc2ccccc12 (centres unmarked) [Compound 145, 4-[[1-(Benzo[b]thiophene-3-carbonyl)-2-methyl-azetidine-2-carbonyl]-(4-trifluoromethyl-benzyl)-amino]-butyric acid] | 101 to 500 nM |
| CCOC(=O)CCCN(Cc1cccc(Cl)c1)C(=O)C1(C)CCN1C(=O)Cc1csc2ccccc12 (centres unmarked) [Compound 147, 4-[[1-(2-Benzo[b]thiophen-3-yl-acetyl)-2-methyl-azetidine-2-carbonyl]-(3-chloro-benzyl)-amino]-butyric acid ethyl ester] | 501 to 1000 nM |
| CC1(C(=O)N(CCCC(=O)O)Cc2cccc(Cl)c2)CCN1C(=O)Cc1csc2ccccc12 (centres unmarked) [Compound 148, 4-[[1-(2-Benzo[b]thiophen-3-yl-acetyl)-2-methyl-azetidine-2-carbonyl]-(3-chloro-benzyl)-amino]-butyric acid] | 501 to 1000 nM |
| Cc1cc(C)cc(CC(=O)N2CCC2(C)C(=O)N(CCCN2CCCC2=O)Cc2ccc(Cl)cc2)c1 (centres unmarked) [Compound 149, 1-[2-(3,5-Dimethyl-phenyl)-acetyl]-2-methyl-azetidine-2-carboxylic acid (4-chloro-benzyl)-[3-(2-oxo-pyrrolidin-1-yl)-propyl]-amide] | > 1000 nM |
| COC(=O)CCN(Cc1ccc(Cl)cc1)C(=O)C1(C)CCN1C(=O)Cc1coc2ccccc12 (centres unmarked) [Compound 150, 3-[[1-(2-Benzofuran-3-yl-acetyl)-2-methyl-azetidine-2-carbonyl]-(4-chloro-benzyl)-amino]-propionic acid methyl ester] | 101 to 500 nM |
| COC(=O)CCN(Cc1ccc(Cl)cc1)C(=O)C1(C)CCN1C(=O)c1csc2ccccc12 (centres unmarked) [Compound 151, 3-[[1-(Benzo[b]thiophene-3-carbonyl)-2-methyl-azetidine-2-carbonyl]-(4-chloro-benzyl)-amino]-propionic acid methyl ester] | 101 to 500 nM |
| CCOC(=O)CCCN(Cc1ccc2cn[nH]c2c1)C(=O)C1(C)CCN1C(=O)Cc1coc2ccccc12 (centres unmarked) [Compound 152, 4-[[1-(2-Benzofuran-3-yl-acetyl)-2-methyl-azetidine-2-carbonyl]-(1H-indazol-6-ylmethyl)-amino]-butyric acid ethyl ester] | 101 to 500 nM |
| CCOC(=O)CCCN(Cc1ccc2cn[nH]c2c1)C(=O)C1(C)CCN1C(=O)c1csc2ccccc12 (centres unmarked) [Compound 153, 4-[[1-(Benzo[b]thiophene-3-carbonyl)-2-methyl-azetidine-2-carbonyl]-(1H-indazol-6-ylmethyl)-amino]-butyric acid ethyl ester] | 101 to 500 nM |
| CC1(C(=O)N(CCC(=O)O)Cc2ccc(Cl)cc2)CCN1C(=O)Cc1coc2ccccc12 (centres unmarked) [Compound 154, 3-[[1-(2-Benzofuran-3-yl-acetyl)-2-methyl-azetidine-2-carbonyl]-(4-chloro-benzyl)-amino]-propionic acid] | > 1000 nM |
| CC1(C(=O)N(CCCC(=O)O)Cc2ccc3cn[nH]c3c2)CCN1C(=O)Cc1coc2ccccc12 (centres unmarked) [Compound 156, 4-[[1-(2-Benzofuran-3-yl-acetyl)-2-methyl-azetidine-2-carbonyl]-(1H-indazol-6-ylmethyl)-amino]-butyric acid] | 101 to 500 nM |
| CC1(C(=O)N(CCCC(N)=O)Cc2ccc(Cl)cc2)CCN1C(=O)c1csc2ccccc12 (centres unmarked) [Compound 158, 1-(Benzo[b]thiophene-3-carbonyl)-2-methyl-azetidine-2-carboxylic acid (3-carbamoyl-propyl)-(4-chloro-benzyl)-amide] | 101 to 500 nM |
| Cc1cc(C)cc(CC(=O)N2CCC2(C)C(=O)N(CCCC(=O)O)Cc2ccc(C(F)(F)F)cc2)c1 (centres unmarked) [Compound 159, 4-[{1-[2-(3,5-Dimethyl-phenyl)-acetyl]-2-methyl-azetidine-2-carbonyl}-(4-trifluoromethyl-benzyl)-amino]-butyric acid] | 501 to 1000 nM |
| CC1(C(=O)N(CCCC(=O)O)Cc2ccc(C(F)(F)F)cc2)CCN1C(=O)Cc1coc2ccccc12 (centres unmarked) [Compound 160, 4-[[1-(2-Benzofuran-3-yl-acetyl)-2-methyl-azetidine-2-carbonyl]-(4-trifluoromethyl-benzyl)-amino]-butyric acid] | 101 to 500 nM |
| Cc1cc(C)cc(CC(=O)N2CCC2(C)C(=O)N(CCCC(=O)O)Cc2cccc(Cl)c2)c1 (centres unmarked) [Compound 161, 4-((3-Chloro-benzyl)-{1-[2-(3,5-dimethyl-phenyl)-acetyl]-2-methyl-azetidine-2-carbonyl}-amino)-butyric acid] | > 1000 nM |
| Cc1cc(C)cc(CC(=O)N2CCC2(C)C(=O)N(CCCC(=O)O)Cc2ccc3ccoc3c2)c1 (centres unmarked) [Compound 162, 4-(Benzofuran-6-ylmethyl-{1-[2-(3,5-dimethyl-phenyl)-acetyl]-2-methyl-azetidine-2-carbonyl}-amino)-butyric acid] | 501 to 1000 nM |
| CC1(C(=O)N(CCCC(=O)O)Cc2ccc3ccoc3c2)CCN1C(=O)c1csc2ccccc12 (centres unmarked) [Compound 163, 4-{[1-(Benzo[b]thiophene-3-carbonyl)-2-methyl-azetidine-2-carbonyl]-benzofuran-6-ylmethyl-amino}-butyric acid] | 101 to 500 nM |
| CC1(C(=O)N(CCCC(=O)O)Cc2ccc3ccoc3c2)CCN1C(=O)Cc1coc2ccccc12 (centres unmarked) [Compound 164, 4-{[1-(2-Benzofuran-3-yl-acetyl)-2-methyl-azetidine-2-carbonyl]-benzofuran-6-ylmethyl-amino}-butyric acid] | 101 to 500 nM |
| CCOC(=O)CCCN(Cc1ccc(C(F)(F)F)cc1)C(=O)C1(C)CCN1C(=O)Cc1cc(C)cc(C)c1 (centres unmarked) [Compound 165, 4-[{1-[2-(3,5-Dimethyl-phenyl)-acetyl]-2-methyl-azetidine-2-carbonyl}-(4-trifluoromethyl-benzyl)-amino]-butyric acid ethyl ester] | 501 to 1000 nM |
| CC1(C(=O)N(CCCC(N)=O)Cc2ccc(Cl)cc2)CCN1C(=O)Cc1coc2ccccc12 (centres unmarked) [Compound 166, 1-(2-Benzofuran-3-yl-acetyl)-2-methyl-azetidine-2-carboxylic acid (3-carbamoyl-propyl)-(4-chloro-benzyl)-amide] | 101 to 500 nM |
| CCOC(=O)CCCN(Cc1ccc(C(F)(F)F)cc1)C(=O)C1(C)CCN1C(=O)Cc1coc2ccccc12 (centres unmarked) [Compound 167, 4-[[1-(2-Benzofuran-3-yl-acetyl)-2-methyl-azetidine-2-carbonyl]-(4-trifluoromethyl-benzyl)-amino]-butyric acid ethyl ester] | > 1000 nM |
| COc1ccc(CNS(=O)(=O)CCCN(Cc2ccc(Cl)cc2)C(=O)C2(C)CCN2C(=O)Cc2cc(C)cc(C)c2)c(OC)c1 (centres unmarked) [Compound 168, 1-[2-(3,5-Dimethyl-phenyl)-acetyl]-2-methyl-azetidine-2-carboxylic acid (4-chloro-benzyl)-[3-(2,4-dimethoxy-benzylsulfamoyl)-propyl]-amide] | > 1000 nM |
| CC1(C(=O)N(CCC(=O)O)Cc2cccc(Cl)c2)CCN1C(=O)Cc1csc2ccccc12 (centres unmarked) [Compound 170, 3-[[1-(2-Benzo[b]thiophen-3-yl-acetyl)-2-methyl-azetidine-2-carbonyl]-(3-chloro-benzyl)-amino]-propionic acid] | 101 to 500 nM |
| Cc1cc(C)cc(CC(=O)N2CCC2(C)C(=O)N(CCCS(N)(=O)=O)Cc2ccc(Cl)cc2)c1 (centres unmarked) [Compound 171, 1-[2-(3,5-Dimethyl-phenyl)-acetyl]-2-methyl-azetidine-2-carboxylic acid (4-chloro-benzyl)-(3-sulfamoyl-propyl)-amide] | 101 to 500 nM |
